Experimental data published in PubChem BioAssay AID248 (DTP/NCI, 2004).
Several values for one entry are separate records, joined by “and”; a condition that tells them apart may be missing. Identical values can stand only once. Toxic doses and inconclusive results are not listed. Rule as the data show it: active = T/C of 150% or more; inactive = T/C below 125%.

Test system: L1210 leukemia ip in BDF1 mice, survival T/C
Assay: NCI In Vivo Anticancer Drug Screen. Data for tumor model L1210 Leukemia (intraperitoneal) in B6D2F1 (BDF1) mice
Details: endpoint: mean survival time, higher = longer survival
Procedure, shortened: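 Transplantable tumor model; survival measured in treated vs vehicle control mice. Value = treated/control.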

[1] = dose: 100.0 mg/kg/injection, schedule: Q04DX003 (ip), vehicle: saline with Tween-80
[2] = dose: 200.0 mg/kg/injection, schedule: Q04DX003 (ip), vehicle: saline with Tween-80
[3] = dose: 400.0 mg/kg/injection, schedule: Q04DX003 (ip), vehicle: saline with Tween-80
[4] = dose: 75.0 mg/kg/injection, schedule: Q01DX001 (ip), vehicle: saline
[5] = dose: 100.0 mg/kg/injection, schedule: Q04DX003 (ip), vehicle: Klucel (hydroxypropylcellulose) (HPC)
[6] = dose: 200.0 mg/kg/injection, schedule: Q04DX003 (ip), vehicle: Klucel (hydroxypropylcellulose) (HPC)
[7] = dose: 400.0 mg/kg/injection, schedule: Q04DX003 (ip), vehicle: Klucel (hydroxypropylcellulose) (HPC)
[8] = dose: 100.0 mg/kg/injection, schedule: Q01DX001 (ip), vehicle: carboxymethylcellulose (CMC)
[9] = dose: 100.0 mg/kg/injection, schedule: Q01DX001 (ip), vehicle: saline
[10] = dose: 200.0 mg/kg/injection, schedule: Q01DX001 (ip), vehicle: carboxymethylcellulose (CMC)
[11] = dose: 200.0 mg/kg/injection, schedule: Q01DX001 (ip), vehicle: saline
[12] = dose: 400.0 mg/kg/injection, schedule: Q01DX001 (ip), vehicle: carboxymethylcellulose (CMC)
[13] = dose: 400.0 mg/kg/injection, schedule: Q01DX001 (ip), vehicle: saline
[14] = dose: 100.0 mg/kg/injection, schedule: Q01DX009 (ip), vehicle: Klucel (hydroxypropylcellulose) (HPC)
[15] = dose: 200.0 mg/kg/injection, schedule: Q01DX009 (ip), vehicle: Klucel (hydroxypropylcellulose) (HPC)
[16] = dose: 400.0 mg/kg/injection, schedule: Q01DX009 (ip), vehicle: Klucel (hydroxypropylcellulose) (HPC)

Measured: T/C

C[C@@H]1C[C@](O)([C@@H](C)Cl)C(=O)O[C@@H]2CCN3CC=C(COC(=O)[C@]1(C)O)[C@H]23
inactive: dose: 3.0 mg/kg/injection, schedule: Q01DX Z (ip), vehicle: saline 107 % of control | dose: 6.0 mg/kg/injection, schedule: Q01DX Z (ip), vehicle: saline 103 % of control | dose: 12.0 mg/kg/injection, schedule: Q01DX Z (ip), vehicle: saline 100 % of control | dose: 24.0 mg/kg/injection, schedule: Q01DX Z (ip), vehicle: saline 103 % of control

CN(N)c1ncnc2c1ncn2C1OC(CO)C(O)C1O (centres undefined)
inactive: [1] 114 % of control | [2] 106 % of control | [3] 95 % of control

C[Si](C)(O)CCl
inactive: [4] 102 % of control

Cc1nc(N)[nH]c(=O)c1CCCOc1ccccc1
inactive: dose: 50.0 mg/kg/injection, schedule: Q01DX Z (ip), vehicle: carboxymethylcellulose (CMC) 95 % of control | dose: 100.0 mg/kg/injection, schedule: Q01DX Z (ip), vehicle: carboxymethylcellulose (CMC) 93 % of control | dose: 200.0 mg/kg/injection, schedule: Q01DX Z (ip), vehicle: carboxymethylcellulose (CMC) 93 % of control | dose: 400.0 mg/kg/injection, schedule: Q01DX Z (ip), vehicle: carboxymethylcellulose (CMC) 93 % of control

CCCCCCCCOc1ccc(N(C)C(N)=S)cc1
inactive: [5] 97 % of control | [6] 101 % of control | [7] 106 % of control

CC1([N+](=O)[O-])COP(=O)(O)OC1 (centres undefined) (tested in a mixture with another compound)
inactive: [8] 109 % of control | [9] 101 % of control [middle of 4 runs] | [10] 109 % of control | [11] 102 % of control [middle of 4 runs] | [12] 107 % of control | [13] 101 % of control and 102 % of control and 103 % of control

O=[N+]([O-])c1ccc(N=Cc2ccccc2O)c(O)c1
inactive: [8] 95 % of control | [10] 104 % of control | [12] 94 % of control

ClC1=C(Cl)C2(Cl)C3C4CC(CC4Cl)C3C1(Cl)C2(Cl)Cl (centres undefined)
inactive: dose: 75.0 mg/kg/injection, schedule: Q01DX001 (ip), vehicle: steriod suspending solution 93 % of control | dose: 150.0 mg/kg/injection, schedule: Q01DX001 (ip), vehicle: steriod suspending solution 90 % of control | dose: 300.0 mg/kg/injection, schedule: Q01DX001 (ip), vehicle: steriod suspending solution 98 % of control

C=C(C)COC(=O)Nc1cccc(O)c1
inactive: dose: 100.0 mg/kg/injection, schedule: Q01DX001 (ip), vehicle: saline + alcohol 96 % of control | dose: 200.0 mg/kg/injection, schedule: Q01DX001 (ip), vehicle: saline + alcohol 96 % of control

O=c1oc2ccccc2c(Cl)c1Cl
inactive: dose: 10.0 mg/kg/injection, schedule: Q01DX001 (ip), vehicle: saline 109 % of control

CCOC(=S)Nc1ccccc1
inactive: dose: 100.0 mg/kg/injection, schedule: Q04DX002 (ip), vehicle: Klucel (hydroxypropylcellulose) (HPC) 103 % of control | dose: 200.0 mg/kg/injection, schedule: Q04DX002 (ip), vehicle: Klucel (hydroxypropylcellulose) (HPC) 90 % of control | dose: 400.0 mg/kg/injection, schedule: Q04DX002 (ip), vehicle: Klucel (hydroxypropylcellulose) (HPC) 107 % of control

C[n+]1cc2c(CO)cc(CO)cc2c2ccccc21
inactive: [4] 97 % of control | dose: 150.0 mg/kg/injection, schedule: Q01DX001 (ip), vehicle: saline 95 % of control | dose: 300.0 mg/kg/injection, schedule: Q01DX001 (ip), vehicle: saline 97 % of control

O=C(O)CC(Br)CBr (centres undefined)
inactive: [9] 94 % of control | [11] 103 % of control

CCCCOC(=O)CCC(C)=O
inactive: dose: 100.0 mg/kg/injection, schedule: Q01DX009 (ip), vehicle: saline with Tween-80 92 % of control | [1] 109 % of control | dose: 200.0 mg/kg/injection, schedule: Q01DX009 (ip), vehicle: saline with Tween-80 100 % of control | [2] 113 % of control | dose: 400.0 mg/kg/injection, schedule: Q01DX009 (ip), vehicle: saline with Tween-80 96 % of control | [3] 112 % of control

CC(=O)OCCC/C(=C\c1c2ccccc2cc2ccccc12)[N+](=O)[O-]
inactive: [8] 94 % of control | [10] 94 % of control | [12] 96 % of control

COc1cc(N)ccc1C(=O)O
inactive: dose: 100.0 mg/kg/injection, schedule: Q04DX003 (ip), vehicle: saline 94 % of control | dose: 200.0 mg/kg/injection, schedule: Q04DX003 (ip), vehicle: saline 96 % of control | dose: 400.0 mg/kg/injection, schedule: Q04DX003 (ip), vehicle: saline 97 % of control

CC(=O)OCC[N+](C)(C)CCCCCCCCCC[N+](C)(C)CCOC(C)=O
inactive: dose: 3.0 mg/kg/injection, schedule: Q01DX009 (ip), vehicle: saline 100 % of control | dose: 6.25 mg/kg/injection, schedule: Q01DX009 (ip), vehicle: saline 89 % of control | dose: 12.5 mg/kg/injection, schedule: Q01DX009 (ip), vehicle: Klucel (hydroxypropylcellulose) (HPC) 97 % of control

CC(C)c1cc[n+](/C(C(=S)Nc2ccccc2Cl)=C(/[O-])c2ccc([N+](=O)[O-])cc2)cc1
inactive: [14] 94 % of control | [15] 97 % of control | [16] 96 % of control

CC1(C)CNC(=O)O1
inactive: [9] 108 % of control | [11] 111 % of control | [13] 100 % of control

CNc1nc2c(N)ncnc2n1C1OC(CO)C(O)C1O (centres undefined)
inactive: dose: 12.5 mg/kg/injection, schedule: Q04DX002 (ip), vehicle: saline 100 % of control | dose: 25.0 mg/kg/injection, schedule: Q04DX002 (ip), vehicle: saline 103 % of control | dose: 25.0 mg/kg/injection, schedule: Q04DX002 (ip), vehicle: suspension in saline 104 % of control | dose: 50.0 mg/kg/injection, schedule: Q01DX001 (ip), vehicle: saline 104 % of control | dose: 50.0 mg/kg/injection, schedule: Q04DX002 (ip), vehicle: saline 113 % of control | dose: 50.0 mg/kg/injection, schedule: Q04DX002 (ip), vehicle: suspension in saline 106 % of control | [9] 110 % of control | dose: 100.0 mg/kg/injection, schedule: Q04DX002 (ip), vehicle: suspension in saline 106 % of control

COc1ccc(OC(=O)Nc2ccc([N+](=O)[O-])cc2OC)cc1
inactive: [14] 96 % of control | [15] 95 % of control | [16] 101 % of control

CC(C)(C)C(=O)CC(=O)C(C)(C)C.CC(C)(C)C(=O)CC(=O)C(C)(C)C.CC(C)(C)C(=O)CC(=O)C(C)(C)C.CC(C)(C)C(=O)CC(=O)C(C)(C)C.[Hf]
inactive: [14] 100 % of control | [5] 97 % of control | [15] 100 % of control | [6] 97 % of control | [16] 100 % of control | [7] 100 % of control

O=C(Nc1cccc2ccccc12)Oc1cccc2cccnc12
inactive: dose: 50.0 mg/kg/injection, schedule: Q01DX001 (ip), vehicle: Klucel (hydroxypropylcellulose) (HPC) 96 % of control | dose: 100.0 mg/kg/injection, schedule: Q01DX001 (ip), vehicle: Klucel (hydroxypropylcellulose) (HPC) 105 % of control | dose: 200.0 mg/kg/injection, schedule: Q01DX001 (ip), vehicle: Klucel (hydroxypropylcellulose) (HPC) 105 % of control

CC12CCC(O)CC1=CCC1C2CCC2(C)C(C(O)CC(O)(C(F)(F)F)C(F)(F)F)CCC12 (centres undefined)
inactive: [1] 92 % of control | [2] 93 % of control | [3] 93 % of control

CN(C)c1ccc(N2C(=O)C=CC2=O)cc1
inactive: dose: 6.25 mg/kg/injection, schedule: Q01DX001 (ip), vehicle: saline with Tween-80 104 % of control | dose: 12.5 mg/kg/injection, schedule: Q01DX001 (ip), vehicle: saline with Tween-80 105 % of control

CCNC(C)(C)C(SSSC(c1ccc(Br)cc1)C(C)(C)NCC)c1ccc(Br)cc1 (centres undefined)
inactive: dose: 25.0 mg/kg/injection, schedule: Q01DX009 (ip), vehicle: water 96 % of control | dose: 50.0 mg/kg/injection, schedule: Q01DX009 (ip), vehicle: water 90 % of control | dose: 100.0 mg/kg/injection, schedule: Q01DX009 (ip), vehicle: water 88 % of control

COc1ccc2c3c1O[C@H]1C(O)C=C[C@H]4[C@@H](C2)N(C)CC[C@]314 (some centres undefined)
inactive: [9] 95 % of control | [11] 95 % of control
